According to patent publication US20250382298A1, “NITROGEN-CONTAINING COMPOUND AND USE THEREOF” (SUZHOU GENHOUSE BIO CO., LTD., priority 2022, published 2025):

Key:
OVCAR3 cells = assay: Detection of cell proliferation activity by CCK8 method (OVCAR3); format: cell-based
Outline: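 OVCAR3 tumor cells in log-phase growth were trypsinized, counted and plated at 180 μL per well in 96-well plates, with PBS in the outer wells. The following day, compounds were added in 9 concentrations (1:5 dilutions starting at 10 μM final) in triplicate alongside DMSO controls. After 96 h, medium was swapped for 100 μL medium containing 10% CCK8. Plates were incubated 2 h at 37° C and read at 450 nm. Background-corrected inhibition relative to DMSO was fitted by non-linear regression in GraphPad Prism 7.0 to obtain IC50.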

[1] = Stability test in rat liver microsomes; format: in vitro ADME, Sprague-Dawley rats; settings: rat liver microsomes 0.5 mg/mL, 1.0 μM substrate; for CLint scaled at 1 μM / half-life at 1 μM: Sprague-Dawley, pH 7.4; for CLint scaled at 1 μM: read-out: RLM 0.5 CLint(liver); for half-life at 1 μM: read-out: RLM 0.5 T½
Protocol: (§1) The phase I metabolic stability of the compounds in liver microsomes of CD-1 mice, Sprague-Dawley rats, beagle dogs, cynomolgus monkeys, and humans was assessed.
(§2) The animal and human liver microsomes used in the test system were purchased from Xenotech, Corning, or other qualified suppliers and stored in a freezer at a temperature below −60° C. prior to use.
(§3) The test samples and control compounds were separately incubated with animal and human liver microsomes at 37±1° C. for a period of incubation time up to 60 min. The samples were removed at the indicated time points, and the reaction was stopped with acetonitrile or another organic solvent containing an internal standard. After centrifugation, the resulting supernatants were assayed by the liquid chromatography-tandem mass spectrometry (LC-MS/MS) method.
(§4) 73.21 g of dipotassium hydrogen phosphate trihydrate and 10.78 g of potassium dihydrogen phosphate were dissolved in 4000 mL of ultrapure water. The solution was adjusted to pH 7.40±0.10 with 10% phosphoric acid or 1 M potassium hydroxide to make a final concentration of 100 mM.
(§5) The test sample powder was prepared into a stock solution at a certain concentration with DMSO or another organic solvent, which was then further diluted with a suitable organic solvent.
(§6) Microsomes of each species were diluted into a 2× working solution with a 100 mM potassium phosphate buffer. The final concentration of the microsomes in the reaction system was 0.5 mg/mL.
(§7) An appropriate amount of nicotinamide adenine dinucleotide phosphate (NADP) and isocitric acid (ISO) powder was weighed out, dissolved in a magnesium chloride solution, and shaken and mixed well. An appropriate amount of isocitrate dehydrogenase (IDH) was added, and the mixture was mixed well by gently turning upside down. The final concentrations in the reaction system were: 1 mM NADP, 1 mM magnesium chloride, 6 mM ISO, and 1 unit/mL IDH.
(§8) The stop solution was prepared with acetonitrile or another organic solvent containing an internal standard (tolbutamide or another suitable compound). The prepared stop solution was stored in a freezer at 2-8° C.
(§9) Incubation was performed in a 96-well plate. Eight incubation plates were prepared and designated T0, T5, T15, T30, T45, T60, Blank60, and NCF60, respectively. The first 6 plates corresponded to reaction time points of […], respectively. No test sample or control compound was added to the Blank60 plate, and samples were taken after 60 min of incubation. In the NCF60 plate, incubation was performed for 60 min using the potassium phosphate buffer instead of the NADPH regeneration system solution. Three replicates were made for samples in all conditions.
(§10) The microsomes and the test sample or control compound were mixed, and then the incubation plates Blank60, T5, T15, T30, T45, and T60 except for TO and NCF60 were placed in a 37° C. water bath for pre-incubation for about 10 min. In the incubation plate T0, a stop solution was first added, followed by addition of the NADPH regeneration system working solution, and 98 μL of the potassium phosphate buffer was added to each sample well of the incubation plate NCF60 to initiate the reaction. After the pre-incubation of the incubation plates Blank60, T5, T15, T30, T45, and T60 was completed, 98 μL of the NADPH regeneration system working solution was added to each sample well to initiate the reaction. The reaction temperature was 37±1° C., the final volume of the reaction was 200 μL, and the reaction system included 0.5 mg/mL microsomes, 1.0 μM substrate, 1 mM NADP, 6 mM ISO, and 1 unit/ml IDH.
(§11) At 5 min, 15 min, […], 45 min, and 60 min, a cold stop solution containing an internal standard was added to the reaction plate to stop the reaction.
(§12) All the reaction plates after the reaction was stopped were shaken well and centrifuged at 3220×g at 4° C. for 20 min. After the supernatant was diluted at a certain ratio, LC-MS/MS analysis was performed. […]

[2] = Stability test in mouse liver microsomes; format: in vitro ADME, CD-1 mice; settings: mouse liver microsomes 0.5 mg/mL, 1.0 μM substrate; for CLint scaled at 1 μM / half-life at 1 μM: CD-1, pH 7.4; for CLint scaled at 1 μM: read-out: MLM 0.5 CLint(liver); for half-life at 1 μM: read-out: MLM 0.5 T½
Protocol: as §1, §2, §3, §4, §5, §6, §7, §8, §9, §10, §11, §12

[3] = Stability test in human liver microsomes; format: in vitro ADME, humans; settings: human liver microsomes 0.5 mg/mL, 1.0 μM substrate; for CLint scaled at 1 μM / half-life at 1 μM: pH 7.4; for CLint scaled at 1 μM: read-out: HLM 0.5 CLint(liver); for half-life at 1 μM: read-out: HLM 0.5 T½
Protocol: as §1, §2, §3, §4, §5, §6, §7, §8, §9, §10, §11, §12

[4] = target: cytochrome oxidase P450 1A2 (Homo sapiens (Human), UniProt P05177); assay: Inhibition of cytochrome oxidase P450 1A2; format: in vitro ADME; settings: liver microsomes, CYP1A2
[5] = Homo sapiens, OVCAR-3, CCK8, 96 h

cytochrome oxidase P450 1A2, sequence (P05177 whole entry): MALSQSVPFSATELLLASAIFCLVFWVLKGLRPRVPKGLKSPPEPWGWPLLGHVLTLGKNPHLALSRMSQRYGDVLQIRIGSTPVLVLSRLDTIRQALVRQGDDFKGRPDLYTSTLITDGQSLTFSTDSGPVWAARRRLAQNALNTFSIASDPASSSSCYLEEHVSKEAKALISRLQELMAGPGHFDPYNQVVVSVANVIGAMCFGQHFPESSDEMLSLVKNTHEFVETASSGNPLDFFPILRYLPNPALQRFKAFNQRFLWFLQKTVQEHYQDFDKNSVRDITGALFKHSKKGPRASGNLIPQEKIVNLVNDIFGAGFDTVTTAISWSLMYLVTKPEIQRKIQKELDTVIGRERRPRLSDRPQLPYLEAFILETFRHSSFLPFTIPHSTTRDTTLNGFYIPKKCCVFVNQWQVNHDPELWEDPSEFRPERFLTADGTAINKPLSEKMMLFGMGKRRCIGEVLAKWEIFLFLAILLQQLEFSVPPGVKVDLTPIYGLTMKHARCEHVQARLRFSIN

Structure (SMILES)	IC50 (OVCAR3 cells; [5])	CLint scaled at 1 μM [1]	half-life at 1 μM [1]	CLint scaled at 1 μM [2]	half-life at 1 μM [2]	CLint scaled at 1 μM [3]	half-life at 1 μM [3]	IC50 [4]	RLM 0.5 CLint(liver) [1]	RLM 0.5 T½ [1]	MLM 0.5 CLint(liver) [2]	MLM 0.5 T½ [2]	HLM 0.5 CLint(liver) [3]	HLM 0.5 T½ [3]	IC50 (OVCAR3 cells; CCK8, 96 h)
Cc1cc(NC(=O)c2ccc(NS(=O)(=O)CCO)cc2N2CC3CCC(C3)C2)nc(N2CCC(F)(F)CC2)n1 [Compound 3]	145 nM	–	–	–	–	–	–	–	–	–	–	–	–	–	–
O=C(Nc1cc2ccccc2c(N2CCC(F)(F)CC2)n1)c1ccc(NS(=O)(=O)CCO)cc1N1CCC2(CC1)CC2 [Compound 6]	57 nM	< 17.3 mL/min/kg	> 2.42 h	< 38 mL/min/kg	> 2.42 h	< 8.6 mL/min/kg	> 2.42 h	> 10000 nM	–	–	–	–	–	–	–
O=C(Nc1cn2ccnc2c(N2CCC(F)(F)CC2)n1)c1ccc(NS(=O)(=O)CCO)cc1N1CCC2(CC1)CC2 [Compound 8]	7.2 nM	< 17.3 mL/min/kg	> 2.42 h	219 mL/min/kg	0.418 h	< 8.6 mL/min/kg	> 2.42 h	> 10000 nM	–	–	–	–	–	–	–
CS(=O)(=O)Nc1ccc(C(=O)Nc2cn3ccnc3c(N3CCC(F)(F)CC3)n2)c(N2CCC3(CC2)CC3)c1 [Compound 10]	–	19.3 mL/min/kg	2.16 h	182 mL/min/kg	0.502 h	< 8.6 mL/min/kg	> 2.42 h	–	–	–	–	–	–	–	–
O=C(Nc1cc2c(c(N3CCC(F)(F)CC3)n1)COC2)c1ccc(NS(=O)(=O)CCO)cc1N1CCC2(CC1)CC2 [Compound 14]	–	34.3 mL/min/kg	1.21 h	54.1 mL/min/kg	1.69 h	22.3 mL/min/kg	0.933 h	–	–	–	–	–	–	–	–
O=C(Nc1cc2ccsc2c(N2CCC(F)(F)CC2)n1)c1ccc(NS(=O)(=O)CCO)cc1N1CCC2(CC1)CC2 [Compound 15]	–	17.2 mL/min/kg	2.42 h	50.6 mL/min/kg	1.81 h	< 8.6 mL/min/kg	> 2.42 h	–	–	–	–	–	–	–	–
CS(=O)(=O)Nc1ccc(C(=O)Nc2cn3ccnc3c(N3CCC(F)(F)CC3)n2)c(N2CC3CCC(C3)C2)c1 [Compound 19]	23.1 nM	27.3 mL/min/kg	1.52 h	52.3 mL/min/kg	1.75 h	11.6 mL/min/kg	1.79 h	> 10000 nM	–	–	–	–	–	–	–
O=C(Nc1cc2cccnc2c(N2CCC(F)(F)CC2)n1)c1ccc(NS(=O)(=O)CCO)cc1N1CCC2(CC1)CC2 [Compound 21]	3.4 nM	< 17.3 mL/min/kg	> 2.42 h	< 38 mL/min/kg	> 2.42 h	< 8.6 mL/min/kg	> 2.42 h	> 10000 nM	–	–	–	–	–	–	–
O=C(Nc1cc2cc[nH]c2c(N2CCC(F)(F)CC2)n1)c1ccc(NS(=O)(=O)CCO)cc1N1CCC2(CC1)CC2 [Compound 22]	3.4 nM	–	–	–	–	–	–	–	–	–	–	–	–	–	–
O=C(Nc1cn2ncnc2c(N2CCC(F)(F)CC2)n1)c1ccc(NS(=O)(=O)CCO)cc1N1CCC2(CC1)CC2 [Compound 23]	5.7 nM	< 17.3 mL/min/kg	> 2.42 h	< 38 mL/min/kg	> 2.42 h	< 8.6 mL/min/kg	> 2.42 h	–	–	–	–	–	–	–	–
O=C(Nc1cn2cnnc2c(N2CCC(F)(F)CC2)n1)c1ccc(NS(=O)(=O)CCO)cc1N1CCC2(CC1)CC2 [Compound 24]	–	–	–	–	–	–	–	–	29.5 mL/min/kg	1.41 h	64.7 mL/min/kg	1.41 h	9.4 mL/min/kg	2.22 h	12.3 nM
O=C(Nc1cn2c(F)cnc2c(N2CCC(F)(F)CC2)n1)c1ccc(NS(=O)(=O)CCO)cc1N1CCC2(CC1)CC2 [Compound 34]	10.6 nM	4.4 mL/min/kg	9.33 h	14.3 mL/min/kg	6.34 h	1.9 mL/min/kg	15.3 h	> 10000 nM	–	–	–	–	–	–	–
CS(=O)(=O)Nc1ccc(C(=O)Nc2cc3cc[nH]c3c(N3CCC(F)(F)CC3)n2)c(N2CCC3(CC2)CC3)c1 [Compound 47]	8 nM	9 mL/min/kg	4.59 h	2.3 mL/min/kg	40.3 h	14.3 mL/min/kg	2.02 h	> 10000 nM	–	–	–	–	–	–	–
